The values that follow come from US6797710B2, “Heterocyclic derivatives and their use as antithrombotic agents” (Akzo Nobel N.V., priority 1997, dated 2004).

Structures can show the parent of a compound that is named as a salt. Where two headings read alike, the source gives them in different places.

Series [1] concerns Caco-2 cells.
Protocol: (§1) In this in vitro model the transepithelial transport properties of a compound are determined in monolayers of a human intestinal cell-line (Caco-2) in terms of a permeability coefficient (apparent permeability).
(§2) Caco-2 cells were obtained from the American Type Culture Collection and were used in passage nrs 25 to 35. Cells were maintained at 37° C. in 75 cm^2 culture flasks (Nunc) in Dulbecco's Modified Eagle's Medium (DNEM) supplemented with 1% of non-essential amino acid solution (100×), 10% of heat-inactivated fetal bovine serum, penicillin (100 U/ml) and streptomycin (100 μg/ml) in an atmosphere of 95% of air and 5% of CO2. The pH of the medium was 7.4. For experiments cells were grown on Transwell-COL™ collagen treated cell culture filter inserts (Costar, Cambridge, Mass., USA) with a surface area of 0.33 cm^2 The seeding density was 6.3×10^5 cells/cm^2. Culture medium was added on each side of the filter. The growth of the cells and degree of confluency was checked every 2-3 days microscopically. Confluent monolayers were used on day 23-24 after seeding, at which time the transepithelial electrical resistance of the monolayers was at a stable value of approximately 260 Ω·cm^2. Permeability experiments were performed with compound concentrations of 0.1 mM or 1 mM in the apical compartment in Hanks' Balanced Salt Solution with or without 0.5% (w/v) of bovine serum albumin. At 1, 2 and 3 hours after addition of compound to the cells the filters were placed into fresh acceptor compartments. In this way three one-hour samples were obtained. Compound concentration was determined in samples from acceptor compartments and donor compartment by HPLC or by measuring anti-thrombin activity. Permeability experiments of each compound were performed with 4 different filters. Results shown in the Table are means of the permeability between 2 and 3 hours after the start of the experiment of at least 2 filters.
The target in another series is Bovine Factor Xa (Bos taurus, UniProt P00743). The experiment in a line: Anti-factor Xa assay (hydrolysis of chromogenic substrate S-2222). Format: biochemical. The conditions noted are these: substrate S-2222, TNP buffer, 37° C. The text has this: Activated Factor X (Xa) is a factor in the coagulation cascade. […] This assay for anti-Xa activity in a buffer system was used to assess the IC50-value of the test compound.
Bovine Factor Xa, sequence (P00743 41-180 limits assumed): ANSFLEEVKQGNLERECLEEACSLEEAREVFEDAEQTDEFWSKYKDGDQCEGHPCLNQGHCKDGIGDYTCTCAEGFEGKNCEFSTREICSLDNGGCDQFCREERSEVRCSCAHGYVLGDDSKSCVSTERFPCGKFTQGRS
Bovine Factor Xa, sequence (P00743 234-492 limits assumed): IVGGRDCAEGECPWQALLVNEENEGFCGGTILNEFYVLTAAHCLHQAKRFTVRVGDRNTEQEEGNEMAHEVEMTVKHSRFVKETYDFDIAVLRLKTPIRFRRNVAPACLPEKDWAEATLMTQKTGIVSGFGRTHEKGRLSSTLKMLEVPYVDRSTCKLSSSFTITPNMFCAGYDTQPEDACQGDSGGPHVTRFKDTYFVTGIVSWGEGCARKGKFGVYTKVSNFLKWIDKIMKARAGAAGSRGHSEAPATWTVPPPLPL
In general the followed procedure and test conditions were analogous to those of the anti-thrombin assay as described above. Differences are indicated below.

The nature of the next series: Caco-2 permeability. The settings on record: human, Caco-2.
For series [2], the system named is Caco-2 cells. The experiment in a line: Caco-2 permeability. The conditions noted are these: 0.1 mM or 1 mM apical; mean of permeability between 2 and 3 hours, at least 2 filters. On the technique in general: Caco-2 monolayers are a common model of the intestinal barrier.
Protocol: as §1, §2
A further series in a line: in vitro. The conditions noted are these: human, Caco-2.
Another series concerns the target Human thrombin (Homo sapiens, UniProt P00734). Kind of series: Anti-thrombin assay (hydrolysis of chromogenic substrate S-2238). It counts as biochemical. The conditions noted are these: substrate S-2238, TNP buffer pH 7.4, 37° C., read-out: Antithrombin activity: IC50. The text has this:
Thrombin (Factor IIa) is a factor in the coagulation cascade.
This assay for anti-thrombin activity in a buffer system was used to assess the IC50-value of a test compound.
Preparation of test and reference compound solutions
Each concentration is stepwise diluted with the vehicle to give concentrations of 10^−3, 10^−4 and 10^−5 mol·l^−1. The dilutions, including the stock solution, are used in the assay (final concentrations in the reaction mixture: 3·10^−3; 10^−3; 3·10^−4; 10^−4; 3·10^−5; 10^−5; 3·10^−6 and 10^−6 mol·l^−1, respectively).
At room temperature 0.075 ml and 0.025 ml test compound or reference compound solutions or vehicle are alternately pipetted into the wells of a microtiter plate and these solutions are diluted with 0.115 ml and 0.0165 ml TNP buffer, respectively. […] The plate is incubated (with shaking for 30 s) at 37° C.
All data are collected in an IBM personal computer using LOTUS-MEASURE. For each compound concentration (expressed in mol·l^−1 reaction mixture) and for the blank the absorbance is plotted versus the reaction time in min.
Evaluation of responses: For each final concentration the maximum absorbance was calculated from the assay plot.

Protocol for in vitro: as §1, §2

For “1-[3-[3-(aminoiminomethyl)phenyl]-2-[(2-naphthalenyl-sulfonyl)amino]-1-oxopropyl]-4-(methylsulfonyl)piperazine [Pefa 1286]”, the “Caco-2 Papp (apparent permeability)” value with Caco-2 cells [1] is 0.11 ×10⁻⁶ cm/s.

The term IC50 denotes the concentration that inhibits the measured activity by half. `COC(=O)C(Cc1ccc2c(N)nccc2c1)NC(=O)CNS(=O)(=O)c1ccc2ccccc2c1` (stereo not shown) [Example 1, 3-(1-amino-6-isoquinolinyl)-2-[[2-[(2-naphthalenylsulfonyl)amino]acetyl]amino]propionic acid methyl ester hydrochloride]: on Bovine Factor Xa, the IC50 turned out to be 48 µM.

Broadly, the Papp A→B is how fast a substance crosses the layer from the apical side. Read a high Papp A→B as fast passage. In turn, `Cl.Nc1nccc2cc(CC(NC(=O)CNS(=O)(=O)c3ccc4ccccc4c3)C(=O)N3CCCCC3)ccc12` (stereo not shown) [Example 2, N-[1-[(1-amino-6-isoquinolinyl)methyl]-2-oxo-2-(1-piperidinyl)ethyl]-2-[(2-naphthalenyl-sulfonyl)amino]acetamide hydrochloride] displayed a Papp A→B in “Caco-2 permeability” of 1.9 ×10⁻⁶ cm/s.

Regarding `COC(=O)C(Cc1cc2c(N)nccc2s1)NC(=O)CNS(=O)(=O)c1ccc2ccccc2c1` (stereo not shown) [Example 3, 3-(4-aminothieno[3,2c]pyridin-2-yl)-2-[[2-[(2-naphthalenylsulfonyl)amino]acetyl]amino]-propionic acid methyl ester hydrochloride], the IC50 at Bovine Factor Xa stood at 29 µM.

In the case of `Cl.Nc1nccc2sc(CC(NC(=O)CNS(=O)(=O)c3ccc4ccccc4c3)C(=O)N3CCCCC3)cc12` (stereo not shown) [Example 4, N-[1-[(4-Aminothieno[3,2c]pyridin-2-yl)methyl]-2-oxo-2-(1-piperidinyl)ethyl]-2-[(2-naphthalenylsulfonyl)amino]acetamide hydrochloride], the “Caco-2 Papp (apparent permeability)” value in the series on Caco-2 cells [2] is 2.5 ×10⁻⁶ cm/s.

For the compound `Cc1c(C)c(S(=O)(=O)NCC(=O)NC(Cc2ccc3c(N)nccc3c2)C(=O)N2CCCCC2)c(C)c2c1OC(C)(C)CC2.Cl` (stereo not shown) [Example 5, N-[1-[(1-Amino-6-isoquinolinyl)methyl]-2-oxo-2-(1-piperidinyl)ethyl]-2-[[(3,4-dihydro-2,2,5,7,8-pentamethyl-2H-1-benzopyran-6-yl)sulfonyl]amino]acetamide hydrochloride], the Papp A→B in “in vitro” was 3.7 ×10⁻⁶ cm/s. For the same compound, the IC50 on Human thrombin was 28 µM.

As for `Nc1nccc2cc(CC(NC(=O)[C@H](CO)NS(=O)(=O)c3ccc4ccccc4c3)C(=O)N3CCCCC3)ccc12` (stereo partly drawn) [Example 7, (2S)-N-[1-[(1-amino-6-isoquinolinyl)methyl]-2-oxo-2-(1-piperidinyl)ethyl]-3-hydroxy-2-[(2-naphthalenylsulfonyl)amino]propanamide hydrochloride], at Human thrombin, the IC50 was found to be 6.8 µM.

`Cc1c(C)c(S(=O)(=O)NNC(=O)NC(Cc2ccc3c(N)nccc3c2)C(=O)N2CCCCC2)c(C)c2c1OC(C)(C)CC2` (stereo not shown) [Example 10, 3,4-dihydro-2,2,5,7,8-pentamethyl-2H-1-benzopyran-6-ylsulfonic acid 2-[[[1-[(1-amino-6-isoquinolinyl)methyl]-2-oxo-2-(1-pineridinyl)ethyl]amino]carbonyl]hydrazide hydrochloride]: the IC50 on Human thrombin was 1.1 µM.

As to `COc1ccc2ccc(S(=O)(=O)NC(Cc3cc4c(N)nccc4s3)C(=O)N3CCC(C)CC3)cc2c1` (stereo not shown) [Example 18, 1-[1-(4-aminothieno[3,2c]pyridin-2-yl)-2-[[(7-methoxy-2-naphthalenyl)sulfonyl]amino]-1-oxopropyl]-4-methylpiperidine hydrochloride], the IC50 at Human thrombin was 0.53 µM.

`COCCN(C)C(=O)C(Cc1cc2c(N)nccc2s1)NS(=O)(=O)c1ccc2ccc(OC)cc2c1` (stereo not shown) [Example 26, 3-(4-aminothieno[3,2c]pyridin-2-yl)-N-(2-methoxyethyl)-2-[[(7-methoxy-2-naphthalenyl)-sulfonyl]amino]-N-methyl-propanamide hydrochloride] registered an IC50 against Bovine Factor Xa of 14 µM.

Take `CC1CCN(C(=O)C(Cc2cc3c(N)nccc3s2)NS(=O)(=O)CC23CCC(CC2=O)C3(C)C)CC1` [Example 30, 1-[3-(4-aminothieno[3,2c]pyridin-2-yl)-2-[[[1-(1R,4S)-(7,7-dimethyl-2-oxobicyclo[2,2,1]hept-1-yl)methyl]sulfonyl]amino]-1-oxopropyl]-4-methylpiperidine hydrochloride]: at Human thrombin, the IC50 came to 35 µM.

Turning to `CC1CCN(C(=O)C(Cc2cc3c(N)nccc3s2)NS(=O)(=O)c2ccc3oc4ccccc4c3c2)CC1` (stereo not shown) [Example 32, 1-[3-(4-aminothieno[3,2c]pyridin-2-yl)-2-[[(2-dibenzofuranyl)sulfonyl]amino]-1-oxopropyl]-4-methylpiperidine hydrochloride], on Human thrombin, the IC50 was found to be 1.44 µM.
